We go through 54 compounds from ChEMBL document CHEMBL1124985, “A Free-Wilson/Fujita-Ban analysis and prediction of the analgesic potency of some 3-hydroxy- and 3-methoxy-N-alkylmorphinan-6-one opioids” (J Med Chem, 1990).

SMILES strings stand for the structures.

In this experiment the target is Opioid receptor (Mus musculus) (UniProt P42866+P32300+P33534).
Opioid receptor (Mus musculus), sequence (P32300 whole entry, looked up): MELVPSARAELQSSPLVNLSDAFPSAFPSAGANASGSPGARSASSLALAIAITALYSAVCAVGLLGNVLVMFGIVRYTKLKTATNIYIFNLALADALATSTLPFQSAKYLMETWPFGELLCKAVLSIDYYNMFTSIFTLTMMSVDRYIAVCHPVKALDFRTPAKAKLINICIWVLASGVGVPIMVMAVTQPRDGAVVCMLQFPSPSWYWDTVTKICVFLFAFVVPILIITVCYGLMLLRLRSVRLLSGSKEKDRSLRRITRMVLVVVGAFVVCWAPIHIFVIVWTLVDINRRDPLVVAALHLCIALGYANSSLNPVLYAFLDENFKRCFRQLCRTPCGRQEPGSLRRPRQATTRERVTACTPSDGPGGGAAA
Opioid receptor (Mus musculus), sequence (P33534 whole entry, looked up): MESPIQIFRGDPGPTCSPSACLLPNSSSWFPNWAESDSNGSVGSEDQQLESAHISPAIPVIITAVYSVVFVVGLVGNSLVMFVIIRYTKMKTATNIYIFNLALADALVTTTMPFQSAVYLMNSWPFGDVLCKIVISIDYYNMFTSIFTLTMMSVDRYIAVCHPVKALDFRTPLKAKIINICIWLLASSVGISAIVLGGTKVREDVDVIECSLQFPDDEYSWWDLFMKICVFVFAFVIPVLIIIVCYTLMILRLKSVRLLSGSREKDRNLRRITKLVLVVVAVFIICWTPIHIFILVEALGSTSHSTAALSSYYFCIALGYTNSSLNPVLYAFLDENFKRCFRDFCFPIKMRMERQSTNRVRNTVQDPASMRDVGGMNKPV
Opioid receptor (Mus musculus), sequence (P42866 whole entry, looked up): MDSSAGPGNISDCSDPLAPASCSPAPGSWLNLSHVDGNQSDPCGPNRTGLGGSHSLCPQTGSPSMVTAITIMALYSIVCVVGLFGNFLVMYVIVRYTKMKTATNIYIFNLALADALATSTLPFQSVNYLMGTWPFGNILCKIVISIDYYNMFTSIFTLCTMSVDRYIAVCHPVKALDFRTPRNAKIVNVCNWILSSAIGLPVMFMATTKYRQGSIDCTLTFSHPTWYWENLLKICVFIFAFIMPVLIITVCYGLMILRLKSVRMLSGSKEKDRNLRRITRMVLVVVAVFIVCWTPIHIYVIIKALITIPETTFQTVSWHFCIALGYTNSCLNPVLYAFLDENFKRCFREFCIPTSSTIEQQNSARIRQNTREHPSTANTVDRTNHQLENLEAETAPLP
Description: Analgesic Potency was tested against mice
Consider `CC[C@H]1CC[C@@H]2Oc3c(OC)ccc4c3[C@@]23CCN(CC2CC2)[C@H](C4)C13` (some centres undefined), for which the Log AP worked out at 5.18. Compound `COc1ccc2c(c1)[C@]13CCN(C)[C@H](C2)[C@@H]1C=CC(=O)C3` had a Log AP of 6.45. Next, `COc1ccc2c(c1)[C@@]13CCC(C)[C@H](C)C1[C@@H](C2)N(C)CC3` (some centres undefined): 5.95; `CC1CC[C@]23CCN(CC4CCC4)[C@H](Cc4ccc(O)cc42)C3[C@H]1C` (stereo in doubt; 40): 6.23.

As for `CCC[C@H]1CCC[C@]23CCN(CC4CC4)[C@H](Cc4ccc(OC)cc42)C13` (some centres undefined), the Log AP was 4.76.

Regarding `COc1ccc2c3c1O[C@H]1CCCC4[C@@H](C2)N(CC2CC2)CC[C@@]341` (some centres undefined), the Log AP amounted to 6.2. `COc1ccc2c(c1)[C@]13CCN(CC4CCC4)[C@H](C2)[C@H]1CC(C)C(=O)C3` (some centres undefined) displayed a Log AP of 4.68. The compound `C[C@H]1CC(=O)C[C@]23CCN(C)[C@H](Cc4ccc(O)cc42)[C@@H]13` registered a Log AP of 6.32. With `COc1ccc2c(c1)[C@@]13CCCC[C@H]1[C@@H](C2)N(C)CC3`, the Log AP came to 5.84. `COc1ccc2c(c1)[C@]13CCN(C)[C@H](C2)[C@@H]1C=C(C)C(=O)C3` yielded a Log AP of 5.67. Next, `C[C@H]1CCC2Oc3c(O)ccc4c3[C@@]23CCN(C)[C@H](C4)C13` (some centres undefined): 6.03; `CC[C@H]1C(C)CC[C@]23CCN(CC4CCC4)[C@H](Cc4ccc(OC)cc42)C13` (some centres undefined): 5.04. For the compound `CC1CC[C@]23CCN(CC4CC4)[C@H](Cc4ccc(O)cc42)C3C1` (some centres undefined), the Log AP was found to be 5.24. As to `C[C@H]1CC(=O)C[C@]23CCN(CC4CCC4)[C@H](Cc4ccc(O)cc42)[C@@H]13`, the Log AP came to 5.75.

As to `CC[C@H]1C(C)CC[C@]23CCN(CC4CCC4)[C@H](Cc4ccc(O)cc42)C13` (some centres undefined), the Log AP came out at 5.82.

The compound `CC[C@H]1CCC[C@]23CCN(CC4CC4)[C@H](Cc4ccc(OC)cc42)C13` (some centres undefined) displayed a Log AP of 5.91. With `Oc1ccc2c3c1O[C@H]1CCCC4[C@@H](C2)N(CC2CCC2)CC[C@@]341` (some centres undefined) the figure was 6.49; with `COc1ccc2c(c1)[C@@]13CCC(C)[C@H](C)C1[C@@H](C2)N(CC1CC1)CC3` (some centres undefined), 6.15.

In turn, `C[C@H]1CCC[C@]23CCN(CC4CC4)[C@H](Cc4ccc(O)cc42)C13` (some centres undefined) yielded a Log AP of 4.81. In turn, `COc1ccc2c3c1O[C@H]1CCCC4[C@@H](C2)N(CC2CCC2)CC[C@@]341` (some centres undefined) showed a Log AP of 5.58.

In turn, `CCC[C@H]1CCC[C@]23CCN(C)[C@H](Cc4ccc(OC)cc42)C13` (some centres undefined) gave a Log AP of 4.9. For `C[C@H]1CCC[C@]23CCN(C)[C@H](Cc4ccc(O)cc42)[C@H]13`, the Log AP was 5.12. The compound `CC[C@H]1CCC2Oc3c(OC)ccc4c3[C@@]23CCN(C)[C@H](C4)C13` (some centres undefined) registered a Log AP of 5.72. Compound `COc1ccc2c(c1)[C@@]13CCC(C)[C@H](C)C1[C@@H](C2)N(CC1CCC1)CC3` (some centres undefined) showed a Log AP of 5.25. With `O=C1CC[C@@H]2[C@H]3Cc4ccc(O)cc4[C@@]2(CCN3CC2CCC2)C1` the figure was 5.92; with `CC1CC[C@]23CCN(C)[C@H](Cc4ccc(O)cc42)C3C1` (some centres undefined), 5.56; with `COc1ccc2c3c1O[C@H]1CC(C)CC4[C@@H](C2)N(C)CC[C@@]341` (some centres undefined), 5.71. Next, `C[C@H]1CCC[C@]23CCN(CC4CCC4)[C@H](Cc4ccc(O)cc42)C13` (stereo in doubt; 46): 6.41; `COc1ccc2c3c1OC1CC[C@H](C)C4[C@@H](C2)N(CC2CCC2)CC[C@]314` (some centres undefined): 5.26; `Oc1ccc2c(c1)[C@@]13CCCC[C@H]1[C@@H](C2)N(CC1CCC1)CC3`: 6.45. Next, `COc1ccc2c3c1O[C@H]1CCCC4[C@@H](C2)N(C)CC[C@@]341` (some centres undefined): 5.54; `CC1CC[C@]23CCN(CC4CCC4)[C@H](Cc4ccc(O)cc42)C3C1` (some centres undefined): 6.71. Compound `COc1ccc2c3c1OC1CC[C@H](C)C4[C@@H](C2)N(CC2CC2)CC[C@]314` (some centres undefined) registered a Log AP of 5.16.

`C=C1C[C@H](C)[C@H]2[C@H]3Cc4ccc(O)cc4[C@@]2(CCN3CC2CCC2)C1` yielded a Log AP of 6.07.

For the compound `Oc1ccc2c3c1O[C@H]1CCCC4[C@@H](C2)N(CC2CC2)CC[C@@]341` (some centres undefined), the Log AP was 5.37. `C[C@H]1CCC[C@]23CCN(C)[C@H](Cc4ccc(O)cc42)C13` (some centres undefined) returned a Log AP of 5.32. As to `CCC[C@H]1CC[C@@H]2Oc3c(OC)ccc4c3[C@@]23CCN(C)[C@H](C4)C13` (some centres undefined), the Log AP worked out at 4.87. With `CC[C@H]1CCC[C@]23CCN(CC4CCC4)[C@H](Cc4ccc(OC)cc42)C13` (some centres undefined) the figure was 5.47. `COc1ccc2c(c1)[C@@]13CCC[C@H](C)C1[C@@H](C2)N(CC1CC1)CC3` (some centres undefined) came in with a Log AP of 6.59. `COc1ccc2c(c1)[C@@]13CCCCC1[C@@H](C2)N(CC1CCC1)CC3` (some centres undefined): the Log AP worked out at 6.09. Next, `CC[C@H]1C(C)CC[C@]23CCN(C)[C@H](Cc4ccc(OC)cc42)C13` (some centres undefined): 5.69; `CN1CC[C@]23CCCCC2C1Cc1ccc(O)cc13` (some centres undefined): 5.99; `COc1ccc2c3c1OC1CC[C@H](C)C4[C@@H](C2)N(C)CC[C@]314` (some centres undefined): 5.45.

The compound `C[C@H]1CCC[C@]23CCN(CC4CCC4)[C@H](Cc4ccc(O)cc42)C13` (stereo in doubt; 41) gave a Log AP of 6.6.

As to `CC[C@H]1CCC[C@]23CCN(C)[C@H](Cc4ccc(OC)cc42)C13` (some centres undefined), the Log AP is 5.93. Turning to `COc1ccc2c(c1)[C@@]13CCC(C)CC1[C@@H](C2)N(CC1CC1)CC3` (some centres undefined), the Log AP is 5.97.

In turn, `CC1CC[C@]23CCN(CC4CCC4)[C@H](Cc4ccc(O)cc42)C3[C@H]1C` (stereo in doubt; 20) returned a Log AP of 6.95. Consider `COc1ccc2c(c1)[C@@]13CCC[C@H](C)C1[C@@H](C2)N(CC1CCC1)CC3` (some centres undefined), for which the Log AP came out at 5.99. Next, `C[C@H]1CC[C@@H]2Oc3c(O)ccc4c3[C@@]23CCN(CC2CCC2)[C@H](C4)C13` (some centres undefined): 6.41; `CN1CC[C@]23c4c5ccc(O)c4O[C@H]2CCCC3[C@H]1C5` (some centres undefined): 5.95; `COc1ccc2c(c1)[C@@]13CCC(C)CC1[C@@H](C2)N(CC1CCC1)CC3` (some centres undefined): 5.16. With `COc1ccc2c(c1)[C@@]13CCCCC1[C@@H](C2)N(CC1CC1)CC3` (some centres undefined), the Log AP turned out to be 6.87. With `COc1ccc2c(c1)[C@@]13CCC[C@H](C)C1[C@@H](C2)N(C)CC3` (some centres undefined), the Log AP came out at 5.87. Regarding `Oc1ccc2c(c1)[C@@]13CCCC[C@H]1[C@@H](C2)N(CC1CC1)CC3`, the Log AP worked out at 5.16.
